Reference: patent US20050086708A1, “Animal models of retinal tumorigenesis” (priority 2003, published 2005)

Experiments:
Y79 cells = assay: Response of cultured retinoblastoma cells to drugs, proportion of viable cells (Y79); assay type: cell-based, human; conditions: 8 hours exposure, assayed 3 days later
Text: (§1) Cell Culture. Y79 and Weri1 cells were obtained from the American Type Culture Collection (Manassas, Va.) and maintained in culture in RPMI medium with 10% FCS (McFall, R. C. et al., “Characterization of a new continuous cell line derived from a human retinoblastoma”, Cancer Res 37: 1003-10 (1977)). Stable lines expressing GFP were generated by transfecting pTET-1 (M.A.D. unpublished) into Y79 and Weril cells by using TransFast (Promega, Madison, Wis.); clones were isolated in the presence of hygromycin. To measure live cells, 0.5 ug/ml calcein was used; to measure dead cells, 4 uM ethidium bromide was used.
(§2) Viable Cell Calculation Following Drug Treatment. […] The proportion of cells that had initiated apoptosis (T) was determined by a TUNEL assay.
(§3) Response of Cultured Retinoblastoma Cells to Chemotherapeutic Drugs. […] For all of the cell culture studies, retinoblastoma cells were exposed to drugs at a cell density corresponding to their optimal proliferation and cell survival. The cell number, proportion of metabolically active cells, and proportion of apoptotic cells were combined to generate the proportion of viable cells (see Materials and Methods for calculations). The proportion of dividing cells was estimated by labeling the cultures with BrdU for 1 hour. Initially, cells were exposed to TPT, CBP, or VCR for 8 hours at concentrations ranging from 1 nM to 200 uM, and the cultures were assayed 3 days later.

Weril cells = assay: Response of cultured retinoblastoma cells to drugs, proportion of viable cells (Weri1); assay type: cell-based, human; conditions: 8 hours exposure, assayed 3 days later
Text: as §1, §2, §3

[1] = system: Y79 and Weril retinoblastoma cells; assay: Combination, time course, FACS and DNA-content studies in cultured retinoblastoma cells; assay type: cell-based, human
Text: as §1
Immunolabeling and TUNEL and BrdU Assays. Y79 and Weri1 retinoblastoma cells were immunolabeled as described previously for dissociated mouse retinae (Dyer, M. A. & Cepko, C. L., “p27Kip1 and p57Kip2 regulate proliferation in distinct retinal progenitor cell population”, J. of Neurosci 21: 4259-71 (2001); Zhu, C. C. et al., “Six2-mediated auto repression and eye development requires its interaction with members of the Groucho-related family of co-repressors”, Development 129: 2835-49 (2002); Dyer, M. A. & Cepko, C. L., “p57(Kip2) regulates progenitor cell proliferationand amacrine intemeuron development in the mouse retina”, Development 127: 3593-605 (2000)). For in vivo studies, BrdU (100 mg/kg body weight) was administered via tail vein injection. BrdU and TUNEL assays were carried out as described previously (Dyer, M. A. et. al., id, Zhu, C. C. et. al., id; Dyer, M. A. et. al., id). Detailed protocols are available at http://www.stjude.org/dyer.
Fluorescent-Activated Cell Sorting. DNA content was analyzed by dissociating tumors with trypsin (Dyer, M. A. et. al., id; Zhu, C. C. et. al., id; Dyer, M. A. et. al., id) and sorting cells by fluorescent-activated cell sorting (FACS). Cells were washed with PBS, and resuspended in a solution containing 0.05 mg/ml propidium iodide, 0.1% sodium citrate and, 0.1% Triton-X100. Samples were then treated with RNase, filtered through a 40-um nylon mesh, and analyzed on a FACScan (Beckton-Dickson, Franklin Lakes, N.J.).
as §2, §3
Following treatment, RNA was isolated and microarray hybridizations were carried out using the human H1 cDNA microarray (see Materials and Methods).
In these preliminary studies, we included an 8-h drug exposure, because that is the maximum period of drug exposure for children receiving chemotherapy. However, the time that tumor cells are exposed in situ is probably considerably shorter, so we performed a time course experiment to determine the minimum duration of exposure required for the full effect on retinoblastoma cell survival and proliferation.

Y79 and Weril cells = assay: Microarray gene expression response of retinoblastoma cells to drugs; assay type: cell-based, human; conditions: microarray analysis after treatment
Experimental: Microarray Hybridization. The H1 human cDNA microarray was printed at the Hartwell Center for Bioinformatics & Biotechnology at St. Jude Children's Research Hospital. The gene list is available at http://www.ncbi.nlm.nih.gov/geo/ (GEO Accession: GLP345). RNA was isolated from approximately 20×10^6 cells in triplicate for each treatment using Trizol (Invitrogen, Carlsbad, Calif.), and 10 ug total RNA underwent one round of linear amplification using the RiboAmp System (Arcturus Applied Genomics, Carlsbad, Calif.) to yield 100 ug of RNA. The RNA was indirectly labeled using aa-dUTP and conjugated with Cy3 and Cy5. Data were then filtered (see http://www.ncbi.nlm.nih.gov/geo/; GLP345 for details), and cluster analysis was performed.
Following treatment, RNA was isolated and microarray hybridizations were carried out using the human H1 cDNA microarray (see Materials and Methods). […] Using the LD50 of TPT, we tested the combination of TPT and CBP and that of TPT and VCR. […] This effect was additive.
Microarray analysis provided even more information about the response of retinoblastoma cells to chemotherapeutic drugs. […] VCR treatment also altered the expression of a different cohort of genes in comparison to TPT treatment. […]

in vivo = conditions: for Kp: rat, in vivo, iv
Experimental: Pharmacology. Two-week-old rats were treated with TPT (Hycamtin; GlaxoSmithKline, Research Triangle Park, N.C.) at a maximum tolerated dose (MTD) of 2 mg/kg body weight, CBP (Paraplatin; Bristol-Myers Squibb, New York, N.Y.) at an MTD of 70 mg/kg, and VCR (Mayne Pharma (USA Inc., Paramus, N.J.) at an MTD of 0.5 mg/kg; all agents were administered via tail vein injection. TPT was measured by HPLC UV absorption as described (Thompson, J. et. al., id). Atomic absorption spectrometry of ultrafiltered and nonfiltered samples was used to measure platinum levels (Simpson, A. E. et al., “Transscleral diffusion of carboplatin: an in vitro and in vivo study”, Arch Ophthalmol 120: 1069-74 (2002)). Liquid scintillation was used to measure levels of [H^3]-VCR (70-90 Ci/mmol; PerkinElmer, Wellesley, Mass.). Mice received TPT, CBP, and VCR at a dose and schedule similar to that used to treat children with retinoblastoma (Schouten-Van Meeteren, A. Y. et al., “Overview: chemotherapy for retinoblastoma: an expanding area of clinical research”, Med Pediatr Oncol 38: 428-38 (2002)) or other brain tumors.
To measure retinal and vitreal penetration of TPT, CBP, and VCR, we injected each drug intravenously into 2-wk-old rats; this age corresponded to the stage of treatment in our xenograft model. Drug levels were measured in the vitreous, retina, and plasma at 3 min, 30 min, 1.5 h, 4 h, and 6 h after injection.

[2] = system: Y79 retinoblastoma xenograft; assay: Orthotopic retinoblastoma xenograft in eyes of newborn rats; assay type: in vivo, rat
Text: For some experiments, the retinoblastoma cells were labeled with a GFP transgene to unambiguously establish tumor boundaries.
To establish a baseline prior to chemotherapy treatment in our retinoblastoma xenograft model, we analyzed cell number, survival, proliferation, apoptosis, and gene expression 2 weeks after engraftment. One hour before analysis, the rats received an injection of BrdU to label the cells in the S-phase of the cell cycle, a measure of the fraction of dividing cells. The engrafted cells were microdissected from the normal tissue and dissociated; the total cell number was then scored. Calcein and ethidium bromide were used to measure metabolically active cells and dead cells, respectively. […] The fraction of dividing cells was estimated by staining with an anti-BrdU antibody and scoring the fraction of immunopositive cells. […] To estimate the proportion of cells that had initiated apoptosis, we performed a TUNEL assay.
After one course of treatment, the transplanted retinoblastoma cells were analyzed for viability and proliferation as described above.

retinoblastoma [3] = conditions: subconjunctival administration; cited from earlier work
retinoblastoma [4] = conditions: low-dose, frequent versus infrequent, high-dose administration; cited from earlier work
[5] = system: primary human retinoblastoma tumors; assay: Enlarged nuclei in tumors removed from patients following VCR treatment; assay type: in vivo; conditions: human tumors treated with VCR; control primary tumors 4%±1%
Text: We were surprised that VCR was not effective at halting retinoblastoma growth in the orthotopic xenograft model because VCR is often combined with other chemotherapeutic agents in the treatment of retinoblastoma in children. It was possible that there was a minor effect of VCR treatment that was masked in our system by the active proliferation and expansion of the xenograft. One of the hallmarks of VCR exposure is a nucleus with twice the genomic DNA content, because VCR blocks cytokinesis without halting cell cycle progression. To test if there was any VCR-mediated block of mitosis, we scored the proportion of large cells with twice the genomic DNA content in cultured cells, xenografts, and tumors removed from patients following VCR treatment. […] The proportion of enlarged nuclei in xenografts and primary human tumors following VCR treatment was similar to control xenografts (3%±2%) and primary tumors (4%±1%), respectively.

[6] = 2-wk-old rats, intravenous, 3 min to 6 h

SMILES	LD50 (Y79 cells) [nM]	cell cycle arrest phase [1]	exposure sufficient to achieve the maximum reduction in cell survival and proliferation ([1]; time course experiment) [min]	p53 pathway activation (Y79 and Weril cells)	LD50 (Weril cells; Weril cells) [nM]	Kp (in vivo; AUC retina/plasma ratio)	Kp (in vivo; AUC vitreous/plasma ratio)	also measured
N.N.O=C([O-])C1(C(=O)[O-])CCC1.[Pt+2] [CBP, carboplatin]	4000	arrested in either the G1 or G2 phase	15	not activated				LD50 (Weril cells; Weri1 cells): 5000 nM; AUC retina/plasma ratio (in vivo; [6]): 0.03; AUC vitreous/plasma ratio (in vivo; [6]): 0.59; cell number/eye ([2]; 2-wk-old rats, after one course of treatment, untreated 2.4±0.6×10^6): 0.79±0.29×10^6 cell number/eye; effect on tumor size (retinoblastoma [3]): effective at reducing tumor size
CC[C@@]1(O)C(=O)OCc2c1cc1n(c2=O)Cc2cc3c(CN(C)C)c(O)ccc3nc2-1 [TPT, topotecan]	30	G2 arrest	15	activated	19	0.7	0.38	proportion of cells arrested in G2 phase (FACS) ([1]; exposed for 10 min): 36%; proportion of cells arrested in G2 phase (FACS) ([1]; exposed for 8 h): 39%; effect on tumor burden (retinoblastoma [4]): more effectively reduced the tumor burden
CC[C@]1(O)C[C@H]2CN(CCc3c([nH]c4ccccc34)[C@@](C(=O)OC)(c3cc4c(cc3OC)N(C=O)[C@H]3[C@@](O)(C(=O)OC)[C@H](OC(C)=O)[C@]5(CC)C=CCN6CC[C@]43[C@@H]65)C2)C1 [VCR, vincristine]	5				3	1	1.1	exposure time required to kill retinoblastoma cells in culture [1]: 4 h; cells with twice their normal DNA content ([1]; cultured cells, 5 nM for 8 h): Approximately 98%; exposure time of maximum decrease in viability ([1]; time course experiment): 4 h; effect on retinoblastoma cell survival ([2]; short-term assay, one course of treatment): little effect; proportion of enlarged nuclei (cell cycle progression without cytokinesis) ([2]; xenografts treated with VCR, control xenografts 3%±2%): 2%±1%; proportion of enlarged nuclei (cell cycle progression without cytokinesis) [5]: 5%±1.5%
